pIC50: −log10 of the molar value.

For the first test, the target named is T1, rabbit reticulocyte 15-LO (Oryctolagus cuniculus, UniProt P12530).
T1 construct: rabbit reticulocyte 15-LO; from tissue; host or cells: rabbit reticulocytes
T1 sequence (P12530 1-663): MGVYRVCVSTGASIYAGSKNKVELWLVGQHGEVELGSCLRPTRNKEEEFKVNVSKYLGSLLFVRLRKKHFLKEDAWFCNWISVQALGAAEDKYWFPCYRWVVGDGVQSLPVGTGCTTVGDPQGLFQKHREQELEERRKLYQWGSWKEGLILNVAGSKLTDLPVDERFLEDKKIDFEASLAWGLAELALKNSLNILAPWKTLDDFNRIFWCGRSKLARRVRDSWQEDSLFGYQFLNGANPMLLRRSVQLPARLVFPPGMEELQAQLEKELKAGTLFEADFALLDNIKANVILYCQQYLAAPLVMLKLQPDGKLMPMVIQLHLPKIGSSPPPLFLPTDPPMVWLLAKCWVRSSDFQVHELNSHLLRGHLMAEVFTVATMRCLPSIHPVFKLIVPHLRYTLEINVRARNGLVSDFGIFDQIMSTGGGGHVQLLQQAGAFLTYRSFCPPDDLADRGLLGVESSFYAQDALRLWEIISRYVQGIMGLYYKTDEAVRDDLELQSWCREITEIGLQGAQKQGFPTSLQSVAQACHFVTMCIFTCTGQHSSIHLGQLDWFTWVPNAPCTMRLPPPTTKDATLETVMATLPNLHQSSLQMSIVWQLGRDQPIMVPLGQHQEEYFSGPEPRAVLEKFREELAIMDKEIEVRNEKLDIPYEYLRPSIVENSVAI
As to the kind of experiment: 15-Lipoxygenase Assay: inhibition of 15-LO with linoleic acid as substrate, HPLC method of Auerbach et al. In kind it is biochemical. The following applies: HPLC method; incubation at 4° C. for 10 minutes; read-out: concentration of compounds required to inhibit 50% of the activity of 15-LO (IC50). The procedure:
The compounds described above are effective inhibitors of 15-LO when evaluated in standard assays routinely utilized to measure 15-LO activity. Specifically, representative compounds were evaluated by the methods described by Auerbach, et al., Analytical Biochemistry, 1992; 201:375-380.Two in vitro assays were utilized, both utilizing rabbit reticulocyte 15-LO, and linoleic acid as substrate, to enzymatically produce a peroxide oxidation product known as 13(S)-HPODE. N-Benzoyl leucomethylene blue was utilized as a calorimetric reagent for detection and quantification of the peroxide formation. Also, HPLC was utilized to quantify the oxidation following incubation at 4° C. for 10 minutes.
The 15-LO inhibitory activity of representative compounds is presented in Table I. The data column gives the concentration of compounds required to inhibit 50% of the activity of 15-LO (IC50) when measured by the HPLC method of Auerbach, et al. [drawing 10] Wherein W, X, Y and Z are C--H and R1 is hydrogen.
Consider `c1ccc(-c2csc(-c3nc4ccccc4[nH]3)n2)nc1` [Example 1], for which the pIC50 is 6.44.

For the molecule `Clc1ccc(-c2csc(-c3nc4ccccc4[nH]3)n2)cc1` [Example 2], the pIC50 was 6.21.

With `Fc1ccc(-c2csc(-c3nc4ccccc4[nH]3)n2)cc1` [Example 3], the pIC50 was 6.72.

For `Clc1ccc(Cl)c(-c2csc(-c3nc4ccccc4[nH]3)n2)c1` [Example 5], the pIC50 was 6.68.

On to `c1ccc(-c2csc(-c3nc4ccccc4[nH]3)n2)cc1` [Example 6, 2-(4-Phenyl-thiazol-2-yl)-1H-benzoimidazole], for which the pIC50 is 6.94.

For `c1csc(-c2csc(-c3nc4ccccc4[nH]3)n2)c1` [Example 7], the pIC50 was 7.02.

Regarding `COc1cccc(-c2csc(-c3nc4ccccc4[nH]3)n2)c1` [Example 8, 2-[4-(3-Methoxy-phenyl)-thiazol-2-yl]-1H-benzoimidazole], the pIC50 was 6.30.

Consider `COc1ccccc1-c1csc(-c2nc3ccccc3[nH]2)n1` [Example 9, 2-[4-(2-Methoxy-phenyl)-thiazol-2-yl]-1H-benzoimidazole], for which the pIC50 was 6.90.

For the molecule `COc1ccc(-c2csc(-c3nc4ccccc4[nH]3)n2)cc1` [Example 10, 2-[4-(4-Methoxy-phenyl)-thiazol-2-yl]-1H-benzoimidazole], the pIC50 is 5.78.

As for `c1ccc(-c2ccc(-c3csc(-c4nc5ccccc5[nH]4)n3)cc2)cc1` [Example 11, 2-(4-Biphenyl-4-yl-thiazol-2-yl)-1H-benzoimidazole], the pIC50 is under 5.00.

As for `Oc1ccc(-c2csc(-c3nc4ccccc4[nH]3)n2)cc1` [Example 12, 4-[2-(1H-Benzoimidazol-2-yl)-thiazol-4-yl]-phenol], the pIC50 was under 5.60.

As to `Oc1ccc(-c2csc(-c3nc4ccccc4[nH]3)n2)cc1O` [Example 13, 4-[2-(1H-Benzoimidazol-2-yl)-thiazol-4-yl]-benzene-1,2-diol], the pIC50 was under 5.60.

For the molecule `COc1ccc(OC)c(-c2csc(-c3nc4ccccc4[nH]3)n2)c1` [Example 15, 2-[4-(2,5-Dimethoxy-phenyl)-thiazol-2-yl]-1H-benzoimidazole], the pIC50 was 6.41.

As to `COc1cccc(OC)c1-c1csc(-c2nc3ccccc3[nH]2)n1` [Example 16, 2-[4-(2,6-Dimethoxy-phenyl)-thiazol-2-yl]-1H-benzoimidazole], the pIC50 was under 5.00.

Take `Cc1ccccc1-c1csc(-c2nc3ccccc3[nH]2)n1` [Example 19, 2-(4-o-Tolyl-thiazol-2-yl)-1H-benzoimidazole]: the pIC50 was 6.48.

For `Clc1cccc(-c2csc(-c3nc4ccccc4[nH]3)n2)c1` [Example 20, 2-[4-(3-Chloro-phenyl)-thiazol-2-yl]-1H-benzoimidazole], the pIC50 is 6.70.

Turning to `Brc1ccc(-c2csc(-c3nc4ccccc4[nH]3)n2)cc1` [Example 21, 2-[4-(4-Bromo-phenyl)-thiazol-2-yl]-1H-benzoimidazole], the pIC50 is 6.34.

Take `O=C1c2ccccc2C(=O)N1Cc1csc(-c2nc3ccccc3[nH]2)n1` [Example 25, 2-[2-(1H-Benzoimidazole-2yl)-thiazol-4-ylmethyl]-isoindole-1,3-dione]: the pIC50 was under 5.00.

Turning to `Brc1sc(-c2nc3ccccc3[nH]2)nc1-c1ccccc1` [Example 27, 2-(5-Bromo-4-phenyl-thiazol-2-yl)-1H-benzoimidazole], the pIC50 was 6.11.

Consider `O=C(O)c1sc(-c2nc3ccccc3[nH]2)nc1-c1ccccc1` [Example 29, 2-(lH-Benzoimidazol-2-yl)-4-phenyl-thiazole-5-carboxylic acid], for which the pIC50 is under 5.00.

As to `O=C(NCCCN1CCCCC1)c1csc(-c2nc3ccccc3[nH]2)n1` [Example 32, 2-(1H-Benzoimidazol-2-yl)-thiazole-4-carboxylic acid (3-piperidin-1-yl-propyl)-amide], the pIC50 is under 5.00.

With `Oc1nc(-c2nc3ccccc3[nH]2)sc1-c1ccccc1` [Example 36, 2-(1H-Benzoimidazol-2-yl)-5-phenyl-thiazol-4-ol], the pIC50 is under 5.00.

Staying with this test, now noted: marked (P), not explained; read-out: IC50 (P).
In the case of `Oc1ccccc1-c1csc(-c2nc3ccccc3[nH]2)n1` [Example 17, 2-[2-(1H-Benzoimidazol-2-yl)-thiazol-4-yl]-phenol], the pIC50 was 7.40.

`c1ccc2[nH]c(-c3nc(-c4ccncc4)cs3)nc2c1` [Example 37]: the pIC50 is 6.27.

Still in this test, the particulars now being: marked (Q), not explained; read-out: IC50 (Q).
`Oc1ccccc1-c1csc(-c2nc3ccccc3[nH]2)n1` [Example 17, 2-[2-(1H-Benzoimidazol-2-yl)-thiazol-4-yl]-phenol]: the pIC50 was 7.10.

Turning to `c1ccc2[nH]c(-c3nc(-c4ccncc4)cs3)nc2c1` [Example 37], the pIC50 is 6.09.

The test is the same for the next values; noted with them: read-out: 15-LO inhibitory activity, % @ 10 μM.
Take `Oc1ccc(Br)cc1-c1csc(-c2nc3ccccc3[nH]2)n1` [Example 14, 2-[2-(1H-Benzoimidazol-2-yl)-thiazol-4-yl]-4-bromo-phenol]: the inhibition at 10 µM worked out at 91.3%.

For the molecule `Cc1ccc(-c2csc(-c3nc4ccccc4[nH]3)n2)cc1` [Example 18, 2-(4-p-Tolyl-thiazol-2-yl)-1H-benzoimidazole], the inhibition at 10 µM worked out at 71.6%.

As to `CCOC(=O)c1sc(-c2nc3ccccc3[nH]2)nc1-c1ccccc1` [Example 28, 2-(1H-Benzoimidazol-2-yl)-4-phenyl-thiazole-5-carboxylic acid ethyl ester], the inhibition at 10 µM was 69%.

Turning to `CCOC(=O)c1csc(-c2nc3ccccc3[nH]2)n1` [Example 30, 2-(1H-Benzoimidazol-2-yl)-thhiazole-4-carboxylic acid ethyl ester], the inhibition at 10 µM stood at 25%.

For `O=C(O)c1csc(-c2nc3ccccc3[nH]2)n1` [Example 31, 2-(1H-Benzoimidazol-2-yl)-thiazole-4-carboxylic acid], the inhibition at 10 µM stood at 1.38%.

With `O=C(Nc1ccccc1)c1csc(-c2nc3ccccc3[nH]2)n1` [Example 33, 2-(1H-Benzoimidazol-2-yl)-thiazole-4-carboxylic acid phenylamide], the inhibition at 10 µM is 25.1%.

Consider `O=C(Nc1sc(-c2nc3ccccc3[nH]2)nc1-c1ccccc1)OCc1ccccc1` [Example 34, [2-(1H-Benzoimidazol-2-yl)-4-phenyl-thiazol-5-yl]-carbamic acid benzyl ester], for which the inhibition at 10 µM worked out at 89.2%.

For `N#Cc1cccc(-c2csc(-c3nc4ccccc4[nH]3)n2)c1` [Example 35, 3-[2-(1H-Benzoimidazol-2-yl)-thiazol-4-yl]-benzonitrile], the inhibition at 10 µM was 45%.
